# Results reported in patent publication US20200393447A1, “BIOSENSORS FOR MEASURING CELL SIGNALING IN STRESSED AND HEALTHY CELLS” (MONTANA MOLECULAR LLC, priority 2017, published 2020).
# Assays:
# Type in all cases: cell-based
# [1] = test system: HEK293T cells; experiment: Multiplex Ca2+ biosensor (SEQ ID NO: 4) in cells stressed with thapsigargin, carbachol stimulation
# Description: In order to analyze the calcium response of cells exposed to an ER-stress inducing molecule, HEK293T cells transfected with the nucleic acid construct described in FIG. 1 were exposed to thapsigargin to induce ER stress. Thapsigargin is an inhibitor of the sarcoplasmic/endoplasmic reticulum Ca^2+ ATPase that inhibits the autophagic process and induces ER stress. The calcium signaling properties of the thapsigargin-treated cells was measured as described below. HEK293T cells were transfected with SEQ ID NO: 4 as follows. 27,000 cells per well in 100 μL of EMEM media were plated onto Greiner 96-well plates coated with poly-D lysine. The cells were incubated for 24 hours at 37° C. and 5% CO2. 100 ng of plasmid DNA expressing SEQ ID NO: 4 and 10 ng of plasmid expressing human muscarinic receptor 1 were then transfected using FUGENE as follows. 100 ng of DNA expressing SEQ ID NO: 4 and 10 ng of DNA expressing human muscarinic receptor 1 were combined with 0.4 μL of FUGENE and brought to a final volume of 50 μL using OPTIMEM serum free media and incubated for 20 mins at 25° C. then added to the cells. After 16 hours the cells were treated with a final concentration of 1 μM thapsigargin for 5 hours to induce ER stress. The cells were then washed 5× with 100 μL DPBS and 150 μL of DPBS was added to the wells. The cells were imaged using a Zeiss Axiovert fluorescence microscope using standard Green Fluorescent Protein (GFP) and Red Fluorescent Protein (RFP) excitation and emission filters. Images were obtained in both the red and green channels every 2 seconds for 100 seconds. A final concentration of 50 μM carbachol was added to the wells to stimulate Gq signaling after 20 seconds, releasing intracellular Ca^2+ stores for detection by the biosensor. The images were analyzed as follows. Cells were identified as either stressed or unstressed based on their green fluorescence intensity. The Ca^2+ signaling response upon Gq stimulation was monitored in the red fluorescence channel.
# [2] = test system: HEK293T cells; experiment: RT-PCR of spliced/unspliced sensor mRNA (XBP1 intron splicing) after thapsigargin
# From the text: A second nucleic acid construct (SEQ ID NO: 6) was constructed and tested. This nucleic acid construct is a red fluorescent protein (RFP) with a nuclear localization sequence, placed upstream of the XBP1 intron sequence. A T2A peptide encoding sequence is placed after the RFP sequence. This is followed by a partial sequence from the endogenous XBP1 gene that encodes a region of the protein important for regulating its stability. This partial XBP1 sequence is fused to the mNeonGreen coding sequence. Upon stress activation the XBP1 intron sequence is removed, this removes a stop codon, shifts the reading frame, and allows for translation of the XBP1-mNeonGreen fusion construct. This construct was transfected into HEK293T cells, which were then treated with 1 μM thapsigargin or DMSO vehicle control to induce ER stress. Isolated mRNA from the treated cells was then analyzed for intron splicing using RT-PCR (see van Schadewijk et al., 2012).
# (§1) HEK293T cells were transduced with 25 μL of the nucleic acid construct of SEQ ID NO: 6. The construct was transduced into 48,000 HEK293T cell in FluoroBrite media and the cells were incubated at 37° C. and 5% CO2 for 16 hours. A final concentration of 1 μM thapsigargin was added to the cells. For RT-PCR analysis a total of 2 μg of total RNA was isolated form 6 wells of cells grown on 96-well Greiner plates coated in poly-D-lysine. […] PCR products were then analyzed on a 2% agarose gel. […] All images were obtained using a Zeiss Axiovert fluorescence microscope with standard RFP and GFP excitation and emission filter sets. […] The media was supplemented with 25 mM HEPES and the cells were incubated in the BioTek Synergy MX plate reader at 37° C. for 24 hours. Green fluorescence was monitored using excitation and emission wavelengths of 485 nm and 528 nm respectively, while red fluorescence was monitored using 558 nm/603 nm excitation and emission wavelengths. […] The percentage of change in green, red, and green/red ratio fluorescence was then calculated.
# [3] = test system: HEK293T cells; experiment: Two-color stress sensor fluorescence monitored over 24 hours after thapsigargin; conditions: 1 μM vs DMSO, 24 hours monitoring
# Description: as §1, with “poly-D-lysine. RNA was isolated using the Zymo Quick RNA microprep kit according to the manufacturer's instructions. mRNA was converted to cDNA by reverse transcription using M-MLV reverse transcriptase from Promega and an oligo dT primer according to the manufacturer's instructions.” for “poly-D-lysine.”
# [4] = test system: iPSC-derived peripheral neurons; experiment: Two-color stress sensor (SEQ ID NO: 6): percentage of ER-stressed cells after chemotherapeutic treatment; conditions: 24 hours of incubation
# From the text: The two-color biosensor described in Example 5 above (RFP-GFP stress sensor; SEQ ID NO: 6) may be used to calculate the percent of cells undergoing ER stress, and may be used as measurement technique to detect side effects induced by chemotherapeutics. In order to determine the percentage of cells in population experiencing ER-stress following exposure to a ER-stress-inducing compound, iPSC-derived peripheral neurons were transduced with the two-color stress sensor described in Example 5 above. The cells were treated with the chemotherapeutic vincristine at concentrations of 0.0001 μM, 0.01 μM, and 0.1 μM. Measurement of the red fluorescence was used to identify transduced cells and measurement of green fluorescence identifies stressed cells. Stressed and unstressed cells were counted to quantify the percentage of stressed cells in the population.
# Peri.4U peripheral neurons from Ncardia were plated onto 96-well plates according to the manufacturer's instructions. Cells were incubated for 2 days at 37° C. and 5% CO2 and the media was changed every 24 hours, using Ncardia neuro supplement media. […] Those cells that expressed both the constitutively expressed red nuclear marker and the green, stress induced, nuclear fluorescence were considered stressed, while those only expressing the red marker were considered unstressed. […]
# [5] = test system: HEK293T cells; experiment: Multiplex Ca2+ biosensor (SEQ ID NO: 4) in cells stressed by P23H rhodopsin mutant, carbachol stimulation; conditions: 50 μM, P23H rhodopsin mutant co-expressed
# Description: In order to analyze the calcium response of cells expressing a mutant protein, HEK293T cells were transfected with both the nucleic acid construct described in FIG. 1 and a mutant rhodopsin protein (P23H). The P23H mutation in rhodopsin causes retinitis pigmentosa (Rivolta et al. 2002), an inherited form of blindness that develops gradually over the first decade of life.
# The experiment in FIG. 4 was conducted the same as in FIG. 3 with the following modifications. 100 ng of a plasmid expressing the P23H rhodopsin mutation was co-transfected with the plasmid expressing SEQ ID NO: 4 and 10 ng of human muscarinic receptor 1. After 24 hours the cells were treated with 50 μM carbachol as described in Example 1 above, and the Ca^2+ signaling was monitored in the red fluorescence channel for cells identified as stressed or unstressed based on their green fluorescence intensity.
smiles,measurement,setting,value
C/C=C(/C)C(=O)O[C@H]1C(C)=C2[C@H]([C@@H]1OC(=O)CCCCCCC)[C@@](C)(OC(C)=O)C[C@H](OC(=O)CCC)[C@@]1(O)[C@H]2OC(=O)[C@@]1(C)O [thapsigargin],mNeonGreen expression (ER stress marker),[1]; 1 μM for 5 hours,the mNeonGreen protein due to the ER stress induced by the thapsigargin treatment
same,persistence of spliced sensor band (recovery from stress),[2]; 1 μM,disappears after 24 hours
same,time of peak intensity of spliced sensor band post-treatment,[2]; 1 μM,2.5 h
same,appearance of spliced version of the sensor (lower band),"[2]; 1 μM vs DMSO, 30 minutes, 2.5, 6 and 24 hours",appears only in the thapsigargin treated cells
same,green stress induced fluorescence over time,[3],"appears rapidly, then disappears by 24 hours"
CC[C@]1(O)C[C@H]2CN(CCc3c([nH]c4ccccc34)[C@@](C(=O)OC)(c3cc4c(cc3OC)N(C=O)[C@H]3[C@@](O)(C(=O)OC)[C@H](OC(C)=O)[C@]5(CC)C=CCN6CC[C@]43[C@@H]65)C2)C1 [vincristine],percentage of stressed cells compared to control treatment,"[4]; 0.01 μM, p<0.00011",statistically significant percentages of stressed cells
same,percentage of stressed cells compared to control treatment,"[4]; 0.1 μM, p<2.3e−05",statistically significant percentages of stressed cells
C[N+](C)(C)CCOC(N)=O [carbachol],"release of intracellular Ca2+ stores, stressed vs unstressed cells",[5],blunted in the stressed cells compared to the unstressed cells
same,Ca2+ response in ER-stressed cells compared to surrounding healthy cells,"[1]; 50 μM, stressed (mNeonGreen) vs unstressed cell","blunted, smaller amplitude response"
same,red fluorescence of Ca2+ biosensor after treatment,"[1]; 50 μM, thapsigargin-treated cells",visible increase in red fluorescence
